molecular target: T1, human RXFP1 (Homo sapiens, UniProt Q9HBX9); experiment: hRXFP1 HEK293 cAMP assay (HTRF); format: cell-based; settings: HEK293 cells stably expressing human RXFP1, 30 min at room temperature
T1 construct: expressed in transfected cells
T1 sequence (Q9HBX9 1-757): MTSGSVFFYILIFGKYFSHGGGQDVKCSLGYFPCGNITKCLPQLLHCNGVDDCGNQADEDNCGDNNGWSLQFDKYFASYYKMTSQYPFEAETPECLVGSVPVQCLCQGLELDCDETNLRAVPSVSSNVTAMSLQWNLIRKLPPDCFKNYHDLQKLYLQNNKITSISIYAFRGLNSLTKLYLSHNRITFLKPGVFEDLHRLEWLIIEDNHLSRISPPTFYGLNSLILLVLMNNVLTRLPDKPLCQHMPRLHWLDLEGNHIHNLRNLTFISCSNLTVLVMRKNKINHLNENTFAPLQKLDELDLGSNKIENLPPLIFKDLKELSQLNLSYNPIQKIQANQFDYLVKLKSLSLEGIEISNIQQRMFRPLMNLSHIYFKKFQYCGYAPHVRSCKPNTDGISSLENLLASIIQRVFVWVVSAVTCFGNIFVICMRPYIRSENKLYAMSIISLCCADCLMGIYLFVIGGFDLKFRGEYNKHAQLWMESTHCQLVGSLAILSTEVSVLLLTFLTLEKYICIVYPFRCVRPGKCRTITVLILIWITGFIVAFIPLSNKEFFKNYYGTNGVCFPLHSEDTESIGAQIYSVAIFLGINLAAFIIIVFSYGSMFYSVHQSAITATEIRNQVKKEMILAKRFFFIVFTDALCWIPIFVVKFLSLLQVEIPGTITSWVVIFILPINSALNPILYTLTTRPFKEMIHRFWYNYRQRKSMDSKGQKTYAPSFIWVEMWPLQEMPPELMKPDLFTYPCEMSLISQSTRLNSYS
Protocol: RXFP1 Cyclic Adenosine Monophosphate (cAMP) Assays. […] Cells were dissociated and suspended in assay buffer. The assay buffer was HBSS buffer (with calcium and magnesium) containing 20 mM HEPES, 0.05% BSA, and 0.5 mM IBMX. Cells (3000 cells per well, except 1500 cell per well for HEK293 cells stably expressing human RXFP1) were added to 384-well Proxiplates (Perkin-Elmer). Cells were immediately treated with test compounds in DMSO (2% final) at final concentrations in the range of 0.010 nM to 50 μM. Cells were incubated for 30 min at room temperature. The level of intracellular cAMP was determined using the HTRF HiRange cAMP assay reagent kit (Cisbio) according to manufacturer's instructions. Solutions of cryptate conjugated anti-cAMP and d2 fluorophore-labelled cAMP were made in a supplied lysis buffer separately. Upon completion of the reaction, the cells were lysed with equal volume of the d2-cAMP solution and anti-cAMP solution. […] The potency and activity of a compound to […] cAMP production was then determined by fitting to a 4-parametric logistic equation from a plot of cAMP level versus compound concentrations.

Q: For `COc1ccc(COC2CCOC2)cc1C(=O)N[C@@H]1C2CCC(/C2=C/C(F)(F)F)[C@@H]1C(=O)Nc1ccc(F)c(C(F)(F)F)c1` (stereo partly drawn) [Example 27, (2S,3R,7Z)-N-[4-fluoro-3-(trifluoromethyl)phe-nyl]-3-{2-methoxy-5-[(oxolan-3-yloxy)methyl]benza-mido}-7-(2,2,2-trifluoroethylidene)bi-cyclo[2.2.1]heptane-2-carboxamide], which EC50 is on record?
A: 4.68 µM

Q: `COc1ccc(CCCNCC(O)(C(F)(F)F)C(F)(F)F)cc1C(=O)N[C@H]1[C@@H](C(=O)Nc2ccc(F)c(C(F)(F)F)c2)[C@H]2CC[C@@H]1/C2=C\C(F)(F)F` [Example 117, (1R,2S,3R,4R,Z)—N-(4-fluoro-3-(trifluoromethyl)phenyl)-3-(2-methoxy-5-(3-((3,3,3-trifluoro-2-hydroxy-2-(trifluoromethyl)propyl)amino)propyl)benzamido)-7-(2,2,2-trifluoroethylidene) bicyclo[2.2.1]heptane-2-carboxamide] was tested. Which EC50 did it give?
A: 1.24 µM

Q: For `COc1ccc(/C=C/C(N)=O)cc1C(=O)N[C@@H]1C2CCC(/C2=C/C(F)(F)F)[C@@H]1C(=O)Nc1ccc(F)c(C(F)(F)F)c1` (stereo partly drawn) [Example 132, (2S,3R,7Z)-3-{5-[(1E)-2-carbamoyleth-1-en-1-yl]-2-methoxybenzamido}-N-[4-fluoro-3-(trifluoromethyl)phe-nyl]-7-(2,2,2-trifluoroethylidene)bi-cyclo[2.2.1]heptane-2-carboxamide], which EC50 is on record?
A: 0.38 µM

Q: For `COc1ccc(CCCO)cc1C(=O)NC1C2CCC(/C2=C/C2CCOCC2)[C@@H]1C(=O)Nc1ccc(F)c(C(F)(F)F)c1` (some centres unmarked) [Example 165, (7Z)-N-[4-fluoro-3-(trifluoromethyl)phe-nyl]-3-[5-(3-hydroxypropyl)-2-methoxybenzamido]-7-[(oxan-4-yl)methylidene]bicy-clo[2.2.1]heptane-2-carboxamide], which EC50 is on record?
A: 0.218 µM

Q: With `COc1ccc(S(=O)(=O)N2CC3CCC(C2)O3)cc1C(=O)N[C@H]1[C@@H](C(=O)Nc2ccc(F)c(C(F)(F)F)c2)[C@H]2CC[C@@H]1/C2=C\C(F)(F)F` [Example 214, (1R,2S,3R,4R,7Z)-N-[4-fluoro-3-(trifluoromethyl)phenyl]-3-(2-methoxy-5-{8-oxa-3-azabicyclo[3.2.1]octane-3-sulfonyl}benzamido)-7-(2,2,2-trifluoroethylidene) bicyclo[2.2.1] heptane-2-carboxamide] as the molecule, how does the EC50 read?
A: 0.272 µM

Q: Which EC50 does the source give for `COc1ccc(CCCCO)cc1C(=O)N[C@@H]1C2CCC(/C2=C/C(F)(F)F)[C@@H]1C(=O)Nc1ccc(F)c(C(F)(F)F)c1` (stereo partly drawn) [Example 98, (2S,3R,7Z)-N-[4-fluoro-3-(trifluoromethyl)phe-nyl]-3-[5-(4-hydroxybutyl)-2-methoxybenzamido]-7-(2,2,2-trifluoroethylidene)bi-cyclo[2.2.1]heptane-2-carboxamide] here?
A: 0.111 µM

Q: `COc1ccc(C2CCCC(NC(=O)C3CCOCC3)C2)cc1C(=O)N[C@@H]1C2CCC(/C2=C/C(F)(F)F)[C@@H]1C(=O)Nc1ccc(F)c(C(F)(F)F)c1` (single isomer, unassigned) [Example 49] was tested. Which EC50 did it give?
A: 0.833 µM

Q: Which EC50 does the source give for `COc1ccc(S(N)(=O)=O)cc1C(=O)N[C@@H]1C2CCC(C2=C(C)C)[C@@H]1C(=O)Nc1ccc(F)c(C(F)(F)F)c1` (stereo partly drawn) [Example 207, (2S,3R)-N-[4-fluoro-3-(trifluoromethyl)phenyl]-3-(2-methoxy-5-sulfamoylbenzamido)-7-(propan-2-ylidene)bicyclo[2.2.1] heptane-2-carboxamide] here?
A: 0.89 µM

Q: Which EC50 does the source give for `COc1ccc(S(=O)(=O)N2CCOC[C@@H]2CO)cc1C(=O)N[C@H]1[C@@H](C(=O)Nc2ccc(F)c(C(F)(F)F)c2)[C@H]2CC[C@@H]1/C2=C\C(F)(F)F` [Example 213, (1R,2S,3R,4R,7Z)-N-[4-fluoro-3-(trifluoromethyl)phenyl]-3-(5-{[(3S)-3-(hydroxymethyl)morpholin-4-yl]sulfonyl}-2-methoxybenzamido)-7-(2,2,2-trifluoroethylidene) bicyclo[2.2.1] heptane-2-carboxamide] here?
A: 0.331 µM

Q: With “(1R,4R,7Z)-N-[4- fluoro-3- (trifluoromethyl) phenyl]-3-[5-(3- hydroxy-3- methylbutyl)-2- methoxybenzamido 1-7-[(oxolan-3- yl)methylidene] bicyclo[2.2.1] heptane- 2-carboxamide [Example 267]” as the molecule, how does the EC50 read?
A: 0.246 µM

Q: Which EC50 does the source give for `COc1ccc(C#CC(C)(C)O)cc1C(=O)N[C@@H]1C2CCC(/C2=C/C(F)(F)F)[C@@H]1C(=O)Nc1ccc(F)c(C(F)(F)F)c1` (stereo partly drawn) [Example 70, (2S,3R,7Z)-N-[4-fluoro-3-(trifluoromethyl)phe-nyl]-3-[5-(3-hydroxy-3-methylbut-1-yn-1-yl)-2-methoxybenzamido]-7-(2,2,2-trifluoroethylidene)bi-cyclo[2.2.1]heptane-2-carboxamide] here?
A: 0.309 µM

Q: With `COc1ccc(CN2CCOCC2)cc1C(=O)N[C@@H]1C2CCC(/C2=C/C(F)(F)F)[C@@H]1C(=O)Nc1ccc(F)c(C(F)(F)F)c1` (stereo partly drawn) [Example 13, (2S,3R,7Z)N-[4-fluoro-3-(trifluoromethyl)phe-nyl]-3-{2-methoxy-5-[(morpholin-4-yl)methyl]benzamido}-7-(2,2,2-trifluoroethylidene)bi-cyclo[2.2.1]heptane-2-carboxamide] as the molecule, how does the EC50 read?
A: 0.625 µM

Q: With `COc1ccc(/C=C/C(=O)N2CCC(C#N)CC2)cc1C(=O)N[C@H]1[C@@H](C(=O)Nc2ccc(F)c(C(F)(F)F)c2)[C@H]2CC[C@@H]1/C2=C\C1CC1` [Example 316, (1R,2S,3R,4R,7Z)-3-{5-[(1E)-3-(4-cyanopiperidin-1-yl)-3-oxoprop-1-en-1-yl]-2-methoxybenzamido}-7-(cyclopropylmethylidene)-N-[4-fluoro-3-(trifluoromethyl)phenyl]bicyclo[2.2.1] heptane-2-carboxamide] as the molecule, how does the EC50 read?
A: 0.0967 µM

Q: Which EC50 does the source give for `COc1ccc(C(=O)N2CCC(S(C)(=O)=O)CC2)cc1C(=O)N[C@H]1[C@@H](C(=O)Nc2ccc(F)c(C(F)(F)F)c2)[C@H]2CC[C@@H]1/C2=C\C1CC1` [Example 247, (1R,2S,3R,4R,7Z)-7-(cyclopropylmethyl-idene)-N-[4-fluoro-3-(trifluoromethyl)phenyl]-3-[5-(4-methanesulfonyl-piperidine-1-carbonyl)-2-methoxybenzamido] bicyclo[2.2.1] heptane-2-carboxamide] here?
A: 0.0272 µM

Q: `COc1ccc(S(=O)(=O)N2CCN3C(=O)CCC3C2)cc1C(=O)N[C@H]1[C@@H](C(=O)Nc2ccc(F)c(C(F)(F)F)c2)[C@H]2CC[C@@H]1/C2=C\C1CC1` (stereo partly drawn) [Example 223, (1R,2S,3R,4R,7Z)-7-(cyclopropyl-methylidene)-N-[4-fluoro-3-(trifluoromethyl)phenyl]-3-[2-methoxy-5-({6-oxo-octahydropyrrolo[1,2-a]piperazin-2-yl}sulfonyl)benzamido] bicyclo[2.2.1] heptane-2-carboxamide] was tested. Which EC50 did it give?
A: 0.145 µM

Q: How did the EC50 turn out when `COc1ccc(C2CC3(CC(N)C3)C2)cc1C(=O)NC1C2CCC(/C2=C/C(F)(F)F)[C@@H]1C(=O)Nc1ccc(F)c(C(F)(F)F)c1` (stereo partly drawn) [Example 154, (2S,3R,7Z)-3-(5-{6-aminospiro[3.3]hept-an-2-yl}-2-methoxybenzamido)-N-[4-fluoro-3-(trifluoromethyl)phe-nyl]-7-(2,2,2-trifluoroethylidene)bi-cyclo[2.2.1]heptane-2-carboxamide] was run?
A: 1.05 µM

Q: For `COc1ccc(CCC(=O)N2CCC(O)CC2)cc1C(=O)N[C@H]1[C@@H](C(=O)Nc2ccc(F)c(C(F)(F)F)c2)[C@H]2CC[C@@H]1/C2=C\C(F)(F)F` [Example 320], which EC50 is on record?
A: 0.0812 µM

Q: Which EC50 does the source give for `COc1ccc(C23CCC(C(C)(C)O)(CC2)CC3)cc1C(=O)N[C@H]1[C@@H](C(=O)Nc2ccc(F)c(C(F)(F)F)c2)[C@H]2CC[C@@H]1/C2=C\C1CC1` (single isomer, unassigned) [Example 274] here?
A: 0.0998 µM

Q: For `COC(=O)C1CC2(C1)CC(c1ccc(OC)c(C(=O)N[C@@H]3C4CCC(/C4=C/C(F)(F)F)[C@@H]3C(=O)Nc3ccc(F)c(C(F)(F)F)c3)c1)C2` (single isomer, unassigned) [Example 150], which EC50 is on record?
A: 0.715 µM

Q: With `COc1ccc(CCCNC(=O)[C@@H](C)O)cc1C(=O)N[C@H]1[C@@H](C(=O)Nc2ccc(F)c(C(F)(F)F)c2)[C@H]2CC[C@@H]1/C2=C\C(F)(F)F` [Example 111, (1R,2S,3R,4R,Z)—N-(4-fluoro-3-(trifluoromethyl)phenyl)-3-(5-(3-((R)-2-hydroxypropanamido)propyl)-2-methoxybenzamido)-7-(2,2,2-trifluoroethylidene) bicyclo[2.2.1]heptane-2-carboxamide] as the molecule, how does the EC50 read?
A: 0.106 µM

Source: US20250268903A1, “RXFP1 AGONISTS” (BRISTOL-MYERS SQUIBB COMPANY, priority 2021, published 2025)
